Measurements as given in patent US20220009920A1 (GB005, Inc., priority 2020, published 2022).

Assays:
Assay in all cases: Large panel kinase profiling
Format in all cases: biochemical
Conditions in all cases: 1 μM test article, 1 mM ATP
CLK2 = molecular target: T1, CLK2 (Homo sapiens, UniProt P49760)
T1 construct: AssayQuant Technologies, Inc. (service laboratory)
Method in brief: (§1)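 Single-point profiling at 1 μM test article used 1 mM ATP. Phosphorylation was tracked by sensor fluorescence increase over time at 30° C., with readings each minute at excitation 360 nm and emission 485 nm.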

CDK16/T = molecular target: T2, CDK16/T (Homo sapiens, UniProt Q00536)
T2 construct: AssayQuant Technologies, Inc. (ran the panel)
Method in brief: as §1

NUAK1 = molecular target: T3, NUAK1 (Homo sapiens, UniProt O60285)
T3 sequence (O60285 1-661): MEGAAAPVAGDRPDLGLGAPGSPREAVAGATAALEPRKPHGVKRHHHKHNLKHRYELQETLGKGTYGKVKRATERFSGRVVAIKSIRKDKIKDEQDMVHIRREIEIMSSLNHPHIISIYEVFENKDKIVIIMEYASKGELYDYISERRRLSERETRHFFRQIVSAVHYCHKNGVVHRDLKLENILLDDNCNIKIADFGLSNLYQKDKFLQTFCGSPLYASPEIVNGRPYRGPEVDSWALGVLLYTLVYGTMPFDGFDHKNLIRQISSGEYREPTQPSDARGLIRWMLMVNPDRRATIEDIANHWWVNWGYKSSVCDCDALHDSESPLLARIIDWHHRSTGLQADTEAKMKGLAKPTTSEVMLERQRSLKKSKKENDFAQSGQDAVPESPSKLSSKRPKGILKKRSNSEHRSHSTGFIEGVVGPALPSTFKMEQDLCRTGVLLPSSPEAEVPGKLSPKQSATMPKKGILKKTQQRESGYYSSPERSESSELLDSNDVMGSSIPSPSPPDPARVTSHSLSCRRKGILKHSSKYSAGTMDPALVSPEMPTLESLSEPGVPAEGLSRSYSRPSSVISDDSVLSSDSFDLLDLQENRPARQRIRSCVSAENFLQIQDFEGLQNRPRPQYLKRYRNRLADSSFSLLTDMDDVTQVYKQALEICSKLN
Method in brief: as §1

MAPK10/JNK3 = molecular target: T4, MAPK10/JNK3 (Homo sapiens, UniProt P53779)
T4 construct: AssayQuant Technologies, Inc. (service provider)
Method in brief: as §1

FES = FES (Homo sapiens, UniProt P07332)
Method in brief: as §1

MAP3K13 = molecular target: T5, MAP3K13 (Homo sapiens, UniProt O43283)
T5 sequence (O43283 1-966): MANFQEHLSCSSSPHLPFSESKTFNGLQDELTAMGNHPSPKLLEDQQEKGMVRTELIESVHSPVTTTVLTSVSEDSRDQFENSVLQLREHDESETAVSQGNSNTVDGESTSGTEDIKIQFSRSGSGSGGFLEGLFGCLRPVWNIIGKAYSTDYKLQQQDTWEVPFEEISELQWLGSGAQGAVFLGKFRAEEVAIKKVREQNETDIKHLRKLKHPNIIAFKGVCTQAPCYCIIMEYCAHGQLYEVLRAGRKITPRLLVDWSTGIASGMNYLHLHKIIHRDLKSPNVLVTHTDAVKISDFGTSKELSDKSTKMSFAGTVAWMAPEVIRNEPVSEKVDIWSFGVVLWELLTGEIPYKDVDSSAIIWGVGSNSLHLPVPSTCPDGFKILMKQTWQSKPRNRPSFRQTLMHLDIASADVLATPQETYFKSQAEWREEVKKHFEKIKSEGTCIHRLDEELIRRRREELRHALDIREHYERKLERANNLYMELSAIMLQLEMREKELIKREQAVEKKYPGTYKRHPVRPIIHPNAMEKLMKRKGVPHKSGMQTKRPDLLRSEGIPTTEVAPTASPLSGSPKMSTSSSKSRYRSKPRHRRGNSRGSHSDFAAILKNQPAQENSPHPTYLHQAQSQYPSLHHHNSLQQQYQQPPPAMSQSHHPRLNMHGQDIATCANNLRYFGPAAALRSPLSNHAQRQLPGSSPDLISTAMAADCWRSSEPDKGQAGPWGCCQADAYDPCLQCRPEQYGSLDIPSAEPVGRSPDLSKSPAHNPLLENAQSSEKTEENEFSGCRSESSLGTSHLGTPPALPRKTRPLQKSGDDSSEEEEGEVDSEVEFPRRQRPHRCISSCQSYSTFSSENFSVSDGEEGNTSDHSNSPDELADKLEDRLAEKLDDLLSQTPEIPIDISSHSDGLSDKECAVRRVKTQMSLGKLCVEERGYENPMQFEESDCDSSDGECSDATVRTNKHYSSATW
Method in brief: as §1

BUB1 = BUB1 (Homo sapiens, UniProt O43683)
Method in brief: as §1

MAPKAPK3/MK3 = molecular target: T6, MAPKAPK3/MK3 (Homo sapiens, UniProt Q16644)
T6 construct: AssayQuant Technologies, Inc. (service provider)
Method in brief: as §1

CDK6/D3 = molecular target: T7, CDK6/D3 (Homo sapiens, UniProt Q00534)
T7 construct: AssayQuant Technologies, Inc. (ran the panel)
Method in brief: as §1

FGFR2 = FGFR2 (Homo sapiens, UniProt P21802)
Method in brief: as §1

T4 sequence (P53779 whole entry): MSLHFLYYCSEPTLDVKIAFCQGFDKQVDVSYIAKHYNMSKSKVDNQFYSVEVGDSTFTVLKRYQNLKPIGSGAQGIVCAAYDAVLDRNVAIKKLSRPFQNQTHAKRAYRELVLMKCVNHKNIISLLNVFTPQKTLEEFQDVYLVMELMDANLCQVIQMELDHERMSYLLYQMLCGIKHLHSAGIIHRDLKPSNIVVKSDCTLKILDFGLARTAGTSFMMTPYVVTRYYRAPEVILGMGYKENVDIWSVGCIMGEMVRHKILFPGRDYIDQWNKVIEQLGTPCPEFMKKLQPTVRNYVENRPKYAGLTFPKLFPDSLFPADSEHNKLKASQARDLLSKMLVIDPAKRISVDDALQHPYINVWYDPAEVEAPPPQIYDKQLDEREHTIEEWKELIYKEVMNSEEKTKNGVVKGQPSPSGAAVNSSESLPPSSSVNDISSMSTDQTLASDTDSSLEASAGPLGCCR
Chain of FGFR2 (P21802 22-821, species assumed): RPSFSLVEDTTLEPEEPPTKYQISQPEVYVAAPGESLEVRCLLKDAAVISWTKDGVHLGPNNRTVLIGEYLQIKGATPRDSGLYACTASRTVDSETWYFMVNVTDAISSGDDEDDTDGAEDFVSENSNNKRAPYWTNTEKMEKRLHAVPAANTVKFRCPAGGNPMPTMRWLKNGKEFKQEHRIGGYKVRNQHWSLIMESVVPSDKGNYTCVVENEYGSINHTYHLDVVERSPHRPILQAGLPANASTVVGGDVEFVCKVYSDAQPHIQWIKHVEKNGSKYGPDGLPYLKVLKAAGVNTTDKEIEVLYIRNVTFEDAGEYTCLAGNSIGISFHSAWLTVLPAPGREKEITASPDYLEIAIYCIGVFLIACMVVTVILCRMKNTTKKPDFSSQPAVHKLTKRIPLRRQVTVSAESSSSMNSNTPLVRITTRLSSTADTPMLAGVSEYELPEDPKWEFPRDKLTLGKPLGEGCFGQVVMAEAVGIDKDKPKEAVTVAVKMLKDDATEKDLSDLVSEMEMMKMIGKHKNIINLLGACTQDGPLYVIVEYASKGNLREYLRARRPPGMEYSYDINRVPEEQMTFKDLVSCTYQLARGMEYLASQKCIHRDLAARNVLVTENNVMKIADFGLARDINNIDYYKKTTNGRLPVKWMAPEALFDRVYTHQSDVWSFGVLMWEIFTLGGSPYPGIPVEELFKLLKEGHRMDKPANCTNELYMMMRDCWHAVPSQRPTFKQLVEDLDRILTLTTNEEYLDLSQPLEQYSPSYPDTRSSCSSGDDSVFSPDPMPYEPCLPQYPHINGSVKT
Chain of FES (P07332 whole entry, species assumed): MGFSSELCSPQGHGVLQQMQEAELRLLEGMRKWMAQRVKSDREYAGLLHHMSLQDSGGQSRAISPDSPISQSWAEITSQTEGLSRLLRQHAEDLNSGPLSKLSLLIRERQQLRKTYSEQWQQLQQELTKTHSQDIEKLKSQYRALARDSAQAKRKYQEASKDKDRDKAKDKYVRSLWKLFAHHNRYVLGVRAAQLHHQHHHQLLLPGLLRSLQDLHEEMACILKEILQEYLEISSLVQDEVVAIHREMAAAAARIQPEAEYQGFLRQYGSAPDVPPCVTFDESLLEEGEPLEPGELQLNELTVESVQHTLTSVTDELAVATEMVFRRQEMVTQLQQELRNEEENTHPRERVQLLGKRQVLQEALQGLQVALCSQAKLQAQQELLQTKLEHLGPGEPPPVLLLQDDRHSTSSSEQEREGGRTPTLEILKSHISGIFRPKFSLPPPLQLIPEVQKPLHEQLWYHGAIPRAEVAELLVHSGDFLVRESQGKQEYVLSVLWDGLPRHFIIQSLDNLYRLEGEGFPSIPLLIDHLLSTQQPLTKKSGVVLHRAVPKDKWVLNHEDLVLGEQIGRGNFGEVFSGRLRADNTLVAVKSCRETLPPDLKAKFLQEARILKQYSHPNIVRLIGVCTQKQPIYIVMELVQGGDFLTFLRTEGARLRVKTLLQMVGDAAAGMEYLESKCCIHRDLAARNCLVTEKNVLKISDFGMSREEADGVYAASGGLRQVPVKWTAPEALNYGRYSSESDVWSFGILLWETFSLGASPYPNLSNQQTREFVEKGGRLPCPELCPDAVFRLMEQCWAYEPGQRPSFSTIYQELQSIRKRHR
T1 sequence (P49760 whole entry, species assumed): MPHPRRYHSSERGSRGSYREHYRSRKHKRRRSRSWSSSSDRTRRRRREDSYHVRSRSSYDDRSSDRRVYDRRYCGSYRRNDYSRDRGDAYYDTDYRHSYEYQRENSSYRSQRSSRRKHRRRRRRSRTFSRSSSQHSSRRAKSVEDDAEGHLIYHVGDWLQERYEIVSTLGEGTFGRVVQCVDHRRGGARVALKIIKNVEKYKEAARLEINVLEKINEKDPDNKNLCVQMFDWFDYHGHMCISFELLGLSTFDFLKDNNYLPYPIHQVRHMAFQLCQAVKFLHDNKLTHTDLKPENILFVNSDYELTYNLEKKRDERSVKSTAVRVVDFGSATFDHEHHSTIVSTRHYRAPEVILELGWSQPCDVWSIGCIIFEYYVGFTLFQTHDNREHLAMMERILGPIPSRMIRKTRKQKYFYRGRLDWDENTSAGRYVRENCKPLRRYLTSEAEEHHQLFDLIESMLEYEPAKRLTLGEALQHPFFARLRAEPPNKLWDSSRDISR
T2 sequence (Q00536 whole entry, species assumed): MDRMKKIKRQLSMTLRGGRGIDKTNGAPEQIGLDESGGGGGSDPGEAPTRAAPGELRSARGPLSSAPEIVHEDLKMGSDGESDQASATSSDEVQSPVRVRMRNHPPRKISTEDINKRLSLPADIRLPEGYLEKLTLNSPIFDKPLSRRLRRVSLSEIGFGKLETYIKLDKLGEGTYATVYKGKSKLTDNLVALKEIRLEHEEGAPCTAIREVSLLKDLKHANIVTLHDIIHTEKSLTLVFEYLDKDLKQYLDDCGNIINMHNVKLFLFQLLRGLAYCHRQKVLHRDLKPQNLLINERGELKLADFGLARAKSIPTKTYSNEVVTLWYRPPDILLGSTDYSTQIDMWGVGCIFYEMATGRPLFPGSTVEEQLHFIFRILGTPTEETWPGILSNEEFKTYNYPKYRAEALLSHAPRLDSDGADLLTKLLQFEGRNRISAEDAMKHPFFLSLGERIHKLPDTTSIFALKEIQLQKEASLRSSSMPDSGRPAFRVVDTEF
T2 sequence (Q8ND76 whole entry partner, species assumed): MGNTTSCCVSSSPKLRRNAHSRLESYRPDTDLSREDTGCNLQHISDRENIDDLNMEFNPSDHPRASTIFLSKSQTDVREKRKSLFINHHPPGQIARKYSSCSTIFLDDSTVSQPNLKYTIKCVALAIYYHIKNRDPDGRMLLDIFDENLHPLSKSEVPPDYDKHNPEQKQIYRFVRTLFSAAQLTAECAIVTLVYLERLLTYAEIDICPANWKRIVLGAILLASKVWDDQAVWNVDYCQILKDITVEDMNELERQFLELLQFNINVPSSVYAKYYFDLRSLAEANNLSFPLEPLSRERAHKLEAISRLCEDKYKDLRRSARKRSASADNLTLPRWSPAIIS
T7 sequence (Q00534 whole entry, species assumed): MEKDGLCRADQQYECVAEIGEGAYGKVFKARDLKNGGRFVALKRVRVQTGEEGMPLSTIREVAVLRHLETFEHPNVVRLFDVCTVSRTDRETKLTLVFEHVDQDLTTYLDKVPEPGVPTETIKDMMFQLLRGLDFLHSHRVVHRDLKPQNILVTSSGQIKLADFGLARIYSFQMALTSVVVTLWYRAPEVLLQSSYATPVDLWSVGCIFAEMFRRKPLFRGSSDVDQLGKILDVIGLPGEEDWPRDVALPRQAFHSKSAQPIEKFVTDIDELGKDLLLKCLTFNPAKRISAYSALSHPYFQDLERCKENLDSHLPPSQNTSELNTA
T7 sequence (P30281 whole entry partner, species assumed): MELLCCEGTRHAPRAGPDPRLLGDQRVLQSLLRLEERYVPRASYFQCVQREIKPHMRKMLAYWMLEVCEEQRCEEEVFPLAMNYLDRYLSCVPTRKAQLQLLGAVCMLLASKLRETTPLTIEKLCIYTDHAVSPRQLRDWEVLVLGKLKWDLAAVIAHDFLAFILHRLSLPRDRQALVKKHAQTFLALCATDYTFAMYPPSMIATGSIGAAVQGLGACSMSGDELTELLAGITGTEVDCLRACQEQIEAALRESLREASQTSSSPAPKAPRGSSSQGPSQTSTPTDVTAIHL
T6 sequence (Q16644 whole entry): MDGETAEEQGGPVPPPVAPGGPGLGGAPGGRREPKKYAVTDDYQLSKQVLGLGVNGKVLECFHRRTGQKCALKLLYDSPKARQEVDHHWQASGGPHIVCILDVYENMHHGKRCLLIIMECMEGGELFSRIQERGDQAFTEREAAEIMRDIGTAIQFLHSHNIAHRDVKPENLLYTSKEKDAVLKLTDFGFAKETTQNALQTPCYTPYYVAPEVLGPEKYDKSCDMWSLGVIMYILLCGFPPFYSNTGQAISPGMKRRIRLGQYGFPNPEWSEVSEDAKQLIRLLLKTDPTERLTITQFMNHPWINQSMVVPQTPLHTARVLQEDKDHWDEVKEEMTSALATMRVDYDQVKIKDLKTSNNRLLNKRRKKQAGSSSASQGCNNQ

| Structure (SMILES) | inhibition at 1 µM (CLK2) [%] | inhibition at 1 µM (CDK16/T) [%] | inhibition at 1 µM (NUAK1) [%] | inhibition at 1 µM (MAPK10/JNK3) [%] | inhibition at 1 µM (FES) [%] | inhibition at 1 µM (MAP3K13) [%] | inhibition at 1 µM (BUB1) [%] | inhibition at 1 µM (MAPKAPK3/MK3) [%] | inhibition at 1 µM (CDK6/D3) [%] | inhibition at 1 µM (FGFR2) [%] |
| --- | --- | --- | --- | --- | --- | --- | --- | --- | --- | --- |
| C=CC(=O)N1CCCC(c2c(F)cc(C(N)=O)c3[nH]c4c(c23)CCCCC4)C1 (single isomer, unassigned) [Compound 5-6] | 0.7 | 19.7 | 3.8 | -13 | 24.5 | 3.6 | 8.2 | 2.1 | -8 | 17.7 |
| C=CC(=O)N1CCC[C@@H](c2c(F)cc(C(N)=O)c3[nH]c4c(c23)CCC4)C1 [Compound 10-2, (S)-8-(1-acryloylpiperidin-3-yl)-7-fluoro-1,2,3,4-tetrahydrocyclo-penta[b]indole-5-carboxamide] | -3.2 | -8.1 | -9.3 | -4 | -31.2 | 3.2 | -2.3 | -42.3 | -18.4 | -3.5 |
| C=CC(=O)N1CCC[C@@H](c2c(F)cc(C(N)=O)c3[nH]c4c(c23)CC2(CC4)CC2)C1 [Compound 6-2, (S)-5-(1-acryloylpiperidin-3-yl)-6-fluoro-1,2,4,9-tetrahydrospiro[carbazole-3,1′-cyclopropane]-8-carboxamide] | -4.6 | -3.1 | 13.2 | 32.1 | -33 | 16.1 | -11.5 | 1.5 | -6.1 | -15.3 |
